The values that follow come from US20230240288A1, “FRUIT TREE POLLINATION METHOD FOR PREVENTING AND CONTROLLING ERWINIA AMYLOVORA-CAUSED DISEASE” (ZHEJIANG UNIVERSITY, priority 2022, published 2023).

In brackets after ≈: the same amount, converted by molar mass.

Assay [1] concerns Erwinia amylovora. Kind of assay: Orchard pollination test (II): liquid pollination, bacteria-free pollen, orchard with moderate pear fire blight. Conditions: artificial pollination with pollen containing the agent, moderate occurrence orchard.
Method: 10 g of xanthan gum was dissolved in 2.5 L of continuously-boiling water and cooled to obtain a solution I; 6.5 kg of white sugar was dissolved with 10 L of hot water to obtain a solution II; 25 g of calcium nitrate and 5 g of boric acid were dissolved in 0.5 L of water to obtain a solution III; the above three solutions were poured into a large container, then added with 30 L of water, and stirred well to prepare a nutrient solution for later use. […]
4 g of the pollen was added to 4 L of a prepared nutrient solution containing the agent, stirred to make the pollen evenly dispersed to prepare a pollen suspension, which was then pollinated by spraying with a shoulder-back electric sprayer. […] A pollen suspension prepared with water instead of the agent was set as a positive control group, and the pollen suspension prepared with water instead of the agent and sprayed on disease-free trees was set as a negative control group, and 3 trees were treated by each group.2 weeks after pollination, a fruit setting rate and the number of flower rot and diseased fruit were counted to calculate an incidence.
For assay [2], the system named is Erwinia amylovora XJSZ0102. Kind of assay: Inhibition zone (filter paper) method, high-concentration screening of 52 agents. Type of assay: cell-based. Conditions: results of filter paper method and turbidimetry; at a high concentration.
The test system of assay [3] is Erwinia amylovora. Kind of assay: Orchard pollination test (I): liquid pollination, bacteria-carrying pollen, disease-free bergamot pear trees. Conditions: artificial pollination with pollen suspension containing the agent.
Method: 10 g of xanthan gum was dissolved in 2.5 L of continuously-boiling water and cooled to obtain a solution I; 6.5 kg of white sugar was dissolved with 10 L of hot water to obtain a solution II; 25 g of calcium nitrate and 5 g of boric acid were dissolved in 0.5 L of water to obtain a solution III; the above three solutions were poured into a large container, then added with 30 L of water, and stirred well to prepare a nutrient solution for later use.
Each agent was diluted with water to form a stock solution, and 100 mL of the stock solution was added to 9.9 L of the nutrient solution, fully stirred and mixed, such that a final concentration of the agent in the nutrient solution was shown in Table 7, and 9 groups of agent treatments were obtained in total.
4 g of the pollen was added to 4 L of a prepared nutrient solution containing the agent, stirred to make the pollen evenly dispersed to prepare a pollen suspension, which was then pollinated by spraying with a shoulder-back electric sprayer. The pollination period was at 40% blooming and at 80% blooming separately, each tree was sprayed with 1 L of the pollen suspension, and each agent treatment group was sprayed to pollinate 3 trees. […] 2 weeks after pollination, a fruit setting rate and the number of flower rot and diseased fruit were counted to calculate an incidence.
The subject of assay [4] is Erwinia amylovora XJSZ0102. The experiment in a line: Toxicity of bactericides against Erwinia amylovora (growth inhibition OD600, EC50 regression).
Where [5] appears, read: Erwinia amylovora, XJSZ0102, 24 h, read-out: Inhibition rate (%).

In general, EC50 refers to the concentration needed to bring the measured effect to its halfway point. Low readings indicate an effect from little substance, high ones a need for much substance. What is called inhibition is the change of the read-out against control, counted positive when it falls.

Regarding `CCCSc1ccc2nc(NC(=O)OC)[nH]c2c1` [Albendazole, albendazole], the “incidence of pear fire blight-based flower rot and fruit rot, compared with positive control group” value in the assay on Erwinia amylovora [1] is listed as “significantly lower than that of the positive control group”. For the same molecule, the “bacteriostatic effect on Erwinia amylovora” value in assay [2] was “desirable bacteriostatic effect”. For the same molecule, the “incidence of flower rot and fruit rot caused by pear fire blight, compared with positive control” value with Erwinia amylovora [3] is reported as “significantly lower incidence than that of the positive control”. Also, a half-maximal response in assay [4] (Erwinia amylovora, XJSZ0102, 24 h) (EC50) required 0.022 µg/mL (≈ 0.0829 µM). In assay [4] (setting [5]), the inhibition at 0.0125 µg/mL worked out at 15.2%, the inhibition at 0.0175 µg/mL turned out to be 33%, the inhibition at 0.025 µg/mL amounted to 54.6% and the inhibition at 0.035 µg/mL was 82%. In assay [4] (setting [5]), the inhibition at 0.05 µg/mL came out at 95.4%.

For zhongshengmycin, the “incidence of pear fire blight-based flower rot and fruit rot, compared with positive control group” value in the assay on Erwinia amylovora [1] is on record as “significantly lower than that of the positive control group”. For the same molecule, the “bacteriostatic effect on Erwinia amylovora” value in assay [2] is given as “desirable bacteriostatic effect”. For the same molecule, the “incidence of flower rot and fruit rot caused by pear fire blight, compared with positive control” value with Erwinia amylovora [3] is listed as “significantly lower incidence than that of the positive control”. In addition, the “Inhibition rate (%)” value in assay [4] (concentration 0.100 mg/L, 24 h) is listed as 28.58%; in assay [4] (concentration 0.160 mg/L, 24 h), 40.31%; in assay [4] (concentration 0.256 mg/L, 24 h), 56.63%; in assay [4] (concentration 0.410 mg/L, 24 h), 66.08%; in assay [4] (concentration 0.655 mg/L, 24 h), 81.07%. Further, the EC50 in assay [4] (toxic regression analysis of bacteriostasis rate, 24 h) turned out to be 0.22 µg/mL.
